# Test results as given in BindingDB's records for doi:10.1016/S0006-291X(02)00356-X (Katholieke Universiteit Leuven, 2002).
# Target: T1, Promotilin (Homo sapiens, UniProt P12872)
# T1 sequence (P12872 whole entry): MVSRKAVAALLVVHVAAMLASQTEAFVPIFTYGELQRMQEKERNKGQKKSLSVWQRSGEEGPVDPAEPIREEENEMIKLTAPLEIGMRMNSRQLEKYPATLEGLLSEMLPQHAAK
row,Compound,Ki [nM]
1,CC[C@H]1OC(=O)[C@H](C)[C@@H](O[C@H]2C[C@@](C)(OC)[C@@H](O)[C@H](C)O2)[C@H](C)[C@@H](O[C@@H]2O[C@H](C)C[C@H](N(C)C)[C@H]2O)[C@@]2(C)CC(C)=C(O2)[C@H](C)[C@@H](O)[C@]1(C)O [Erythromycin-A enol ether],8.32
2,CC[C@H]1OC(=O)[C@H](C)[C@@H](O[C@H]2C[C@@](C)(OC)[C@@H](O)[C@H](C)O2)[C@H](C)[C@@H](O[C@@H]2O[C@H](C)C[C@H](N(C)C)[C@H]2O)[C@](C)(O)C[C@@H](C)C(=O)[C@H](C)[C@@H](O)[C@H]1C [Erythromycin-B],145
3,"CC[C@H]1OC(=O)[C@H](C)[C@@H](O[C@H]2C[C@@](C)(OC)[C@@H](O)[C@H](C)O2)[C@H](C)[C@@H](O[C@@H]2O[C@H](C)C[C@H](N(C)CC)[C@H]2O)[C@](C)(O)C[C@@H](C)C(=O)[C@H](C)[C@@H](O)[C@]1(C)O [N-ethyl, N-Methyl Erythromycin-A]",240
4,"H-FVPAFTYGELQRLQ-NH2 [[ala4,leu13]pMOT(1-14)]",2570
5,H-FVPIF-NH2 [[leu13]pMOT(1-5)],8910
6,"H-FVPIFAYGELQRLQ-NH2 [[ala6,leu13]pMOT(1-14)]",46.8
7,"H-FVPIFTAGELQRLQ-NH2 [[ala7,leu13]pMOT(1-14)]",1450
8,H-FVPIFTY-NH2 [[leu13]pMOT(1-7)],6920
9,"H-FVPIFTYAELQRLQ-NH2 [[ala8,leu13]pMOT(1-14)]",36.3
10,"H-FVPIFTYGALQRLQ-NH2 [[ala9,leu13]pMOT(1-14)]",75.9
11,H-FVPIFTYGE-NH2 [[leu13]pMOT(1-9)],4070
12,H-FVPIFTYGELQ-NH2 [[leu13]pMOT(1-11)],89.1

# Continued by falling Ki, values first:
row,Ki [nM],Compound
1,28.8,"H-FVPIATYGELQRLQ-NH2 [[ala5,leu13]pMOT(1-14)]"
2,7.59,CC[C@H]1OC(=O)[C@H](C)[C@@H](O[C@H]2C[C@@](C)(OC)[C@@H](O)[C@H](C)O2)[C@H](C)[C@@H](O[C@@H]2O[C@H](C)C[C@H](N(C)C)[C@H]2O)C2(C)CC(C)=C(O2)[C@H](C)[C@@H](O)[C@H]1C (some centres undefined) [Erythromycin-B enol ether]
3,7.24,"H-FVPIFTYGELQRAQ-NH2 [[ala13,leu13]pMOT(1-14)]"
4,7.08,"H-FVPIFTYGELQRLA-NH2 [[ala14,leu13]pMOT(1-14)]"
5,6.31,"H-FVPIFTYGELQALQ-NH2 [[ala12,leu13]pMOT(1-14)]"
6,6.03,"CC[C@H]1OC(=O)[C@H](C)[C@@H](O[C@H]2C[C@@](C)(OC)[C@@H](O)[C@H](C)O2)[C@H](C)[C@@H](O[C@@H]2O[C@H](C)C[C@H](N(C)CC)[C@H]2O)[C@@]2(C)CC(C)=C(O2)[C@H](C)[C@@H](O)[C@]1(C)O [N-ethyl, N-methyl Erythromycin-A enol ether]"
7,5.01,"H-FVPIFTYGEAQRLQ-NH2 [[ala10,leu13]pMOT(1-14)]"
8,4.57,"H-FVPIFTYGELARLQ-NH2 [[ala11,leu13]pMOT(1-14)]"
9,2.14,CC[C@H](C)[C@H](NC(=O)[C@@H]1CCCN1C(=O)[C@@H](NC(=O)[C@@H](N)Cc1ccccc1)C(C)C)C(=O)N[C@@H](Cc1ccccc1)C(=O)N[C@H](C(=O)N[C@@H](Cc1ccc(O)cc1)C(=O)NCC(=O)N[C@@H](CCC(=O)O)C(=O)N[C@@H](CC(C)C)C(=O)N[C@@H](CCC(N)=O)C(=O)N[C@@H](CCCN=C(N)N)C(=O)N[C@@H](CC(C)C)C(=O)N[C@@H](CCC(N)=O)C(=O)N[C@@H](CCC(=O)O)C(=O)N[C@@H](CCCCN)C(N)=O)[C@@H](C)O [[leu13]pMOT(1-16)]
10,1.32,"H-FVAIFTYGELQRLQ-NH2 [[ala3,leu13]pMOT(1-14)]"
11,1,H-FVPIFTYGELQRLQEKERNKGQ-OH [[leu13]pMOT(1-22)]
12,0.98,H-FVPIFTYGELQRLQEKERN-NH2 [[leu13]pMOT(1-19)]
